The values that follow come from publication PMC8550792, “Evolution of kinase polypharmacology across HSP90 drug discovery” (Cell Chemical Biology, 2021).

Test in all cases: biochemical
Assay type in all cases: biochemical

Experiment [1] has as its target T1, 382 unique human kinases (Homo sapiens, UniProt P07949, L790F).
T1 construct: purchased Reaction Biology (HotSpot contract assay)
The settings on record: RET (L790F), 10 uM; for remaining activity at 10 µM: read-out: % Enzyme Activity (relative to DMSO controls).

Experiment [2] addresses T2, 382 unique human kinases (Homo sapiens, UniProt P31749).
T2 construct: purchased Reaction Biology (HotSpot contract assay)
The settings on record: kinase AKT1, compound 10 uM; for remaining activity at 10 µM: read-out: % Enzyme Activity (relative to DMSO controls).

In experiment [3] the target is T3, 382 unique human kinases (Homo sapiens, UniProt O96013).
T3 construct: purchased Reaction Biology (HotSpot contract assay)
The settings on record: PAK4, compound at 10 uM, duplicate values; for remaining activity at 10 µM: read-out: % Enzyme Activity (relative to DMSO controls).

Experiment [4] addresses T4, 382 unique human kinases (Homo sapiens, UniProt P04049).
T4 construct: purchased Reaction Biology (HotSpot contract assay)
The settings on record: RAF1, compound at 10 uM, duplicate values; for remaining activity at 10 µM: read-out: % Enzyme Activity (relative to DMSO controls).

For experiment [5], the target named is T5, 382 unique human kinases (Homo sapiens, UniProt O96017, I157T).
T5 construct: purchased Reaction Biology (HotSpot contract assay)
The settings on record: CHK2 (I157T), 10 uM; for remaining activity at 10 µM: read-out: % Enzyme Activity (relative to DMSO controls).

For experiment [6], the target named is T6, 382 unique human kinases (Homo sapiens, UniProt P10721, T670I/V559D).
T6 construct: purchased Reaction Biology (HotSpot contract assay)
To be noted: c-Kit (V559D/T670I), 10 uM; for remaining activity at 10 µM: read-out: % Enzyme Activity (relative to DMSO controls).

For experiment [7], the target named is T7, 382 unique human kinases (Homo sapiens, UniProt O00141).
T7 construct: purchased Reaction Biology (HotSpot contract assay)
T7 sequence (O00141 1-431): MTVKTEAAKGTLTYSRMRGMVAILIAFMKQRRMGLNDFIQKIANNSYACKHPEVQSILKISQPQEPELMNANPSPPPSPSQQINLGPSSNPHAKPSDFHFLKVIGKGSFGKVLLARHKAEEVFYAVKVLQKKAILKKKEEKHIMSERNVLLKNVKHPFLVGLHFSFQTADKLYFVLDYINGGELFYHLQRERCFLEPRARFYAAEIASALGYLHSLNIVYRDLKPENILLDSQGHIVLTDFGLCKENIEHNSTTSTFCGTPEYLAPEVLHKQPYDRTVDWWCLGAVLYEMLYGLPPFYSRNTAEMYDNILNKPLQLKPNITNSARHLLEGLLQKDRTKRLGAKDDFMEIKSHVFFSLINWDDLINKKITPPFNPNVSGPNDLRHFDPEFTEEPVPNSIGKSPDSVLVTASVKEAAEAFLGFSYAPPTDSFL
To be noted: SGK1, 10 uM; for remaining activity at 10 µM: read-out: % Enzyme Activity (relative to DMSO controls).

Experiment [8] deals with T8, 382 unique human kinases (Homo sapiens, UniProt Q8IY84).
T8 construct: purchased Reaction Biology (HotSpot contract assay)
The settings on record: NIM1, 10 uM; for remaining activity at 10 µM: read-out: % Enzyme Activity (relative to DMSO controls).

The target in experiment [9] is T9, 382 unique human kinases (Homo sapiens, UniProt O95382).
T9 construct: purchased Reaction Biology (HotSpot contract assay)
T9 sequence (O95382 1-1288): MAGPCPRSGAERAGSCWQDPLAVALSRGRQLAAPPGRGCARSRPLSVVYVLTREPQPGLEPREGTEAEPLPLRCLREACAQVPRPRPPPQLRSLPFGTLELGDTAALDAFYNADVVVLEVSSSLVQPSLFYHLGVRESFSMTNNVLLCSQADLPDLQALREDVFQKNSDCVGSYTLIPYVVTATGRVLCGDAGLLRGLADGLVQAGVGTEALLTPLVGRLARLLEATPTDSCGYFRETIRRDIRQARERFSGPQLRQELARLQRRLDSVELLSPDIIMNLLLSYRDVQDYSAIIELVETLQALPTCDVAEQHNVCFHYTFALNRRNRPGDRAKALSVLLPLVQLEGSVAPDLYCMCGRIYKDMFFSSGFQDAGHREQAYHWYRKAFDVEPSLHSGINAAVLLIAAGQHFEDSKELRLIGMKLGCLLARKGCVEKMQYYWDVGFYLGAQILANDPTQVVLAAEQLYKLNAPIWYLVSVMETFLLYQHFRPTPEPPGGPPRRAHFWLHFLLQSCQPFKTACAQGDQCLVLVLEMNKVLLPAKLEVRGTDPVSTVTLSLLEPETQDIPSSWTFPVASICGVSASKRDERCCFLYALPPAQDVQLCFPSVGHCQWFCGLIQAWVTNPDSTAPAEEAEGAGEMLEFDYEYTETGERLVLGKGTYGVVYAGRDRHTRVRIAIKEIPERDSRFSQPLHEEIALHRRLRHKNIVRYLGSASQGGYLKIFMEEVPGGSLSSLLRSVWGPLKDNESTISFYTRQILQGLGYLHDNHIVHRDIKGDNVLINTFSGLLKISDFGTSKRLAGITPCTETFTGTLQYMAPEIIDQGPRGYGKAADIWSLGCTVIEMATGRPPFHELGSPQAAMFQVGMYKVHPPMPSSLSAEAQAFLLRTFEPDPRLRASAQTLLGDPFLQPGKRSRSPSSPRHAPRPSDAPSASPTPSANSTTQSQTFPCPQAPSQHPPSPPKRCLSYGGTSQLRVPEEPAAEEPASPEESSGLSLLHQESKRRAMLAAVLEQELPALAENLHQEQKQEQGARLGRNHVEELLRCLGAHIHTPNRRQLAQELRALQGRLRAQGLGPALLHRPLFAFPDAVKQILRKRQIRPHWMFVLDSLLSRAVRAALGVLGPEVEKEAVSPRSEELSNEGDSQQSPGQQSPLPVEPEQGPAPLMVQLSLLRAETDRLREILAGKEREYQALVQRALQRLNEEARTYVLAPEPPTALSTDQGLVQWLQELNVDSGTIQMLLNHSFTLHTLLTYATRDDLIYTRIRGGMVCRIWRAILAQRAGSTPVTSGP
The settings on record: MEKK6, 10 uM; for remaining activity at 10 µM: read-out: % Enzyme Activity (relative to DMSO controls).

For experiment [10], the target named is T10, 382 unique human kinases (Homo sapiens, UniProt Q9UQM7).
T10 construct: purchased Reaction Biology (HotSpot contract assay)
To be noted: CAMK2a, 10 uM; for remaining activity at 10 µM: read-out: % Enzyme Activity (relative to DMSO controls).

T2 sequence (P31749 whole entry): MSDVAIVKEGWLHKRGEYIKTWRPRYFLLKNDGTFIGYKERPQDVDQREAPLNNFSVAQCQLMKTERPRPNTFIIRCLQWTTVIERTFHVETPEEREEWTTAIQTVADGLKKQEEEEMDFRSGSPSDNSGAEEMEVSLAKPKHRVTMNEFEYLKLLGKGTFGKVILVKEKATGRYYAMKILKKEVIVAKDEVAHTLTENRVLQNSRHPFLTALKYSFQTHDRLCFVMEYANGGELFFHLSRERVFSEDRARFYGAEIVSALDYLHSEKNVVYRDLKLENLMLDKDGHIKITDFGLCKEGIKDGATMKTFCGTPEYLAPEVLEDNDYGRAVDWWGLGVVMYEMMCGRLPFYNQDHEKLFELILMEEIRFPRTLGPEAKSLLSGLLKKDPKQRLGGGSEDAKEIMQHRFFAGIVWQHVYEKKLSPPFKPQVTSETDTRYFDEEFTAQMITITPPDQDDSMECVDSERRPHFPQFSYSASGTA
T5 sequence (O96017 whole entry I157T): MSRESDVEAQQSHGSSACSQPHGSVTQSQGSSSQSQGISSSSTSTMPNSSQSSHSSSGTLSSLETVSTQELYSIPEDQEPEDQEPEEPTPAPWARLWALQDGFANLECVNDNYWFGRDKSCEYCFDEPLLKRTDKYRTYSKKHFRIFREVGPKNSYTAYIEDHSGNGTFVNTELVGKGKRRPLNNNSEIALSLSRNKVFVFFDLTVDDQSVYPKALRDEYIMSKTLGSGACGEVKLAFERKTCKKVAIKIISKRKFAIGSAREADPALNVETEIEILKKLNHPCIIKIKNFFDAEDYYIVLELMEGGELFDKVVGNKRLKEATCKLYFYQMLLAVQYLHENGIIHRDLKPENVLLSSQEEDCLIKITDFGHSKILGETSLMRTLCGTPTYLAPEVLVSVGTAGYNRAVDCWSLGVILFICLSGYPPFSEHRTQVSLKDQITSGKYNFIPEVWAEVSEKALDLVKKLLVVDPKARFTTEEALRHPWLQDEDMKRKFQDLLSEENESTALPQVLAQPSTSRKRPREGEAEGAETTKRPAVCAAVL
T4 sequence (P04049 whole entry): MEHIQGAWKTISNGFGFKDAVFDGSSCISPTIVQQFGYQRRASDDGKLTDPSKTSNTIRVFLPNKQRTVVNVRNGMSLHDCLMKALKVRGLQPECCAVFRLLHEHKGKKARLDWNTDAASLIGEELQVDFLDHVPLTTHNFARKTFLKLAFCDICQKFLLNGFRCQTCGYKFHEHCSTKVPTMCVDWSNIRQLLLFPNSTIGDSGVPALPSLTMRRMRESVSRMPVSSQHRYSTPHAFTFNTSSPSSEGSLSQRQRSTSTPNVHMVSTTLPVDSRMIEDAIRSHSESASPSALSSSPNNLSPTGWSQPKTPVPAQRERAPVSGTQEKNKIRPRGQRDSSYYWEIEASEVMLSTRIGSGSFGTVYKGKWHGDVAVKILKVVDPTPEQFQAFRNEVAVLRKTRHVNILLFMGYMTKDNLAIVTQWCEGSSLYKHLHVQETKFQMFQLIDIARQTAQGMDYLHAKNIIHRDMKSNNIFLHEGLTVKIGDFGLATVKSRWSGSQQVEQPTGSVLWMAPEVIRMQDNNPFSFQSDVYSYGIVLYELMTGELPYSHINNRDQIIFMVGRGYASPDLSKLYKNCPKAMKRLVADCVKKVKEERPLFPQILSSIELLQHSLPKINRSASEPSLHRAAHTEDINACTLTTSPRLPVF
T8 sequence (Q8IY84 whole entry): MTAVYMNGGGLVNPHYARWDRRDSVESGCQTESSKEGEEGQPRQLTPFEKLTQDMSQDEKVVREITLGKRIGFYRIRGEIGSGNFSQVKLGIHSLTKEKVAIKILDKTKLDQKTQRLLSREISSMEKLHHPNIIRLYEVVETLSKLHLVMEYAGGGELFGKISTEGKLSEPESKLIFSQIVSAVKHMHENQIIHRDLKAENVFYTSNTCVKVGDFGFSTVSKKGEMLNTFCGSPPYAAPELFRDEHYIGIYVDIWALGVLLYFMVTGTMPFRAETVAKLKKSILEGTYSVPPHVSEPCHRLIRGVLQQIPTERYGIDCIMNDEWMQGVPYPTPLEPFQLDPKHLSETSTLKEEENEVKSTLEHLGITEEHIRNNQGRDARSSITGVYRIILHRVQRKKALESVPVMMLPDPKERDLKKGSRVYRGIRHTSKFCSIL
T3 sequence (O96013 whole entry): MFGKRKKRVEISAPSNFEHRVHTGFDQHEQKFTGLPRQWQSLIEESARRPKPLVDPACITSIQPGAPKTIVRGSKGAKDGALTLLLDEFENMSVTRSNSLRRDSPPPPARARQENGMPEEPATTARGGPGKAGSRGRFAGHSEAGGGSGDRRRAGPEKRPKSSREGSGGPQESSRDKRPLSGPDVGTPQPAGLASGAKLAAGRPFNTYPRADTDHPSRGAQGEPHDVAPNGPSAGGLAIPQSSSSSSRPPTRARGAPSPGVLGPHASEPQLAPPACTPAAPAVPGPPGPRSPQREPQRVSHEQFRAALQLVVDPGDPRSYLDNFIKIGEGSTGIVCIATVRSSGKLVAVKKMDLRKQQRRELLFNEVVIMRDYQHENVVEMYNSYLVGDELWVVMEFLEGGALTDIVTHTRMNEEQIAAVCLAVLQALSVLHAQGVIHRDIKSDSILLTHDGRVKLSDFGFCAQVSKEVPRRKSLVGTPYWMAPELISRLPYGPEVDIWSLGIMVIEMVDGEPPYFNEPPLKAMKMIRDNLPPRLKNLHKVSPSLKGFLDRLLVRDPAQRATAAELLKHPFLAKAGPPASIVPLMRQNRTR
T10 sequence (Q9UQM7 whole entry): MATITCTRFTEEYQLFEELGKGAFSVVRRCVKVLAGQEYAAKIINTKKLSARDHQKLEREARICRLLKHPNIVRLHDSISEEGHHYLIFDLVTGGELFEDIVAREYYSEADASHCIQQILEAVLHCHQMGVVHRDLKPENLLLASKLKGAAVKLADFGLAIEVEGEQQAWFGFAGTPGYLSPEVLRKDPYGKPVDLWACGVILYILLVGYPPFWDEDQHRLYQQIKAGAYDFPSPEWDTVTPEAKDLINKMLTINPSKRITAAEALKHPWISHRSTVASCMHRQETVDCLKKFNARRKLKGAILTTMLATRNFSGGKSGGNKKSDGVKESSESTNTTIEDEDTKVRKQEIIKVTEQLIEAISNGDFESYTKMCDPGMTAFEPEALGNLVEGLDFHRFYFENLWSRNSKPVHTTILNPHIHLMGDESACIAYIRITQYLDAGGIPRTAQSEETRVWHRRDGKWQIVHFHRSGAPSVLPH
T1 sequence (P07949 29-1114 L790F): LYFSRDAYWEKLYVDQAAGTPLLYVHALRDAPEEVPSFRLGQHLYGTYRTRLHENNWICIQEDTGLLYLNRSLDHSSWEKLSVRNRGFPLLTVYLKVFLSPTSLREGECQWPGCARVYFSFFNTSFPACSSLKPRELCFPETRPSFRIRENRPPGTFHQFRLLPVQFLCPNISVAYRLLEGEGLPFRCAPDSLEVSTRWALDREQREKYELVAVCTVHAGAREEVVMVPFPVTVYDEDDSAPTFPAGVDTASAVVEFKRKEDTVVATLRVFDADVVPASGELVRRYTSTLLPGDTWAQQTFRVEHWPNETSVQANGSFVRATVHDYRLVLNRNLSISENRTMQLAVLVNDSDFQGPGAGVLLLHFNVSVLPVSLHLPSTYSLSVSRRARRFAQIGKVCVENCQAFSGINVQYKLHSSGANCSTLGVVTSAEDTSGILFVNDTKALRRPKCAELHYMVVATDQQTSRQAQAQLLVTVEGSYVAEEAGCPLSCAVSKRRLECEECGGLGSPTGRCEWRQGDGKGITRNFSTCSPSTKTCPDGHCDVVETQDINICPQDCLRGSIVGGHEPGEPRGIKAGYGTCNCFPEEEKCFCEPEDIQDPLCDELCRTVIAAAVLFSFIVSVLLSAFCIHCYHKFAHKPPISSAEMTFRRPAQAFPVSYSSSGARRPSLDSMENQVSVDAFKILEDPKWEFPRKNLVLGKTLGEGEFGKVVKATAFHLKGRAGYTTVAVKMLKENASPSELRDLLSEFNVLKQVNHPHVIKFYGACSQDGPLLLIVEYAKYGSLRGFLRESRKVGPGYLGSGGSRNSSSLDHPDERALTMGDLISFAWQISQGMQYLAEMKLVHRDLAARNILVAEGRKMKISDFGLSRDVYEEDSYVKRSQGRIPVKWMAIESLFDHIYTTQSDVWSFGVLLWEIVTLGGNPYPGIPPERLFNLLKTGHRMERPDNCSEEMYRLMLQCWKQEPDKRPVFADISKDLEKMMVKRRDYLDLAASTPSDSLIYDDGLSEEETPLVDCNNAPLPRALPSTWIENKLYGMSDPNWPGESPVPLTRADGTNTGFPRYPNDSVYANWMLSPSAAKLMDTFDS

For `CC(C)c1cc(-c2n[nH]c(=O)n2-c2ccc3c(ccn3C)c2)c(O)cc1O` [Ganetespib (STA9090)], the remaining activity at 10 µM on 382 unique human kinases [1] was 68.1%; on 382 unique human kinases [2], 84.4%; at 382 unique human kinases [3], 129%; on 382 unique human kinases [4] it was 106%; on 382 unique human kinases [5] it was 76.6%; on 382 unique human kinases [6] it was 67.9%.
On to `CC(C)c1cc(-c2n[nH]c(=O)n2-c2ccc3c(ccn3C)c2)c(O)cc1O` [Ganetespib], for which the remaining activity at 10 µM on 382 unique human kinases [7] came out at 99%; at 382 unique human kinases [8] it was 90.5%; at 382 unique human kinases [9], 94.2%; on 382 unique human kinases [10], 91.1%.
`CCNC(=O)c1noc(-c2cc(C(C)C)c(O)cc2O)c1-c1ccc(CN2CCOCC2)cc1` [Luminespib (AUY-922)]: the “% Enzyme Activity (relative to DMSO controls)” value on 382 unique human kinases [1] worked out at 91.09%; at 382 unique human kinases [2] it was 97.59%; on 382 unique human kinases [3], 118.57%; on 382 unique human kinases [4] it was 103.94%; at 382 unique human kinases [5], 100.31%; at 382 unique human kinases [6], 91.06%. Besides, the remaining activity at 10 µM on 382 unique human kinases [1] was 91.5%; at 382 unique human kinases [2] it was 98.4%; on 382 unique human kinases [3], 119%; on 382 unique human kinases [4], 105%; on 382 unique human kinases [5], 102%; at 382 unique human kinases [6] it was 91.5%.
Turning to `CCNC(=O)c1noc(-c2cc(C(C)C)c(O)cc2O)c1-c1ccc(CN2CCOCC2)cc1` [Luminespib], the “% Enzyme Activity (relative to DMSO controls)” value on 382 unique human kinases [7] came to 99.71%; at 382 unique human kinases [8], 99.73%; on 382 unique human kinases [9], 94.49%; on 382 unique human kinases [10], 102.76%. Also, the remaining activity at 10 µM at 382 unique human kinases [7] is 100%; on 382 unique human kinases [8] it was 99.8%; at 382 unique human kinases [9], 96%; on 382 unique human kinases [10], 104%.
